Laboratory results taken from patent publication US20020182207A1, “Methods and compositions for modifying biologically active target molecules” (priority 2000, published 2002).
One block for each compound: values may come before it.

Legend:
[1] = tested on: β-lactamase-producing E. coli (TG1 phage antibody E. coli); test: Growth of β-lactamase-producing E. coli on agar plates containing antibiotics; assay type: cell-based; set-up: E. coli growth score on agar plate: key to the marks not given beside the values; settings: for Antibiotic effect on β-lactamase-producing E. coli (in words): at the indicated concentrations of Table 2; for Concentration toxic to β-lactamase-expressing E. coli / Concentration toxic to β-lactamase-expressing E. coli (toxic level): agar plates; for Concentration toxic to β-lactamase-expressing E. coli (toxic level): called IC50 in b119 and b167
Procedure: First, the ability of these candidate cephalosporins to kill the relevant β-lactamase-producing E. coli (TG1 phage antibody E. coli) was tested. […] This is presumably due to β-lactamase-catalyzed inactivation. […] Presumably, neither is inactivated by E. coli β-lactamase. […] More preferably, E. coli should be challenged with approximately 40-45 μM cefoxitin and 0.45-0.50 μM cefotaxime.
Next, the ability of the cephalosporins to kill the relevant β-lactamase-producing E. coli (TG1 phage antibody E. coli) was tested by growing the bacteria on agar plates containing the antibiotics. […] This is presumably due to β-lactamase-catalyzed inactivation. […] Presumably, neither is inactivated by E. coli β-lactamase.
A second experiment was performed in which E. coli was grown on agar plates containing varying amounts of cefotaxime.

TNFα = TNFα (Homo sapiens, UniProt P01375); test: ECL-based assay of TNFα binding to its receptor after incubation with label (sugars, ampicillin)
Chain of TNFα (P01375 77-233 limits assumed): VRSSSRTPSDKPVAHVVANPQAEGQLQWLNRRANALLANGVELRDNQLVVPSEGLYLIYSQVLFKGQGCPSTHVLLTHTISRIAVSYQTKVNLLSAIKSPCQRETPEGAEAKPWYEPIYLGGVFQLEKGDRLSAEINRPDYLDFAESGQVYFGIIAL
Procedure: Experiments were conducted to determine whether catalytic antibodies can chemically modify and thereby inactivate disease-associated proteins. First, the reaction of reducing sugars with the disease-associated protein, tumor necrosis factor alpha (TNFα) was examined. In this reaction, the reducing sugar aldehyde covalently reacts with protein lysine sidechains. Chemical modification was detected using an ECL-based binding assay that measures the binding of TNFα to its receptor (an assay of biological function). […] Thus, chemical modification is a viable approach to inactivate proteins. Experiments were conducted to determine whether catalytic antibodies can inactivate disease-associated proteins. First, the reaction of reducing sugars with the disease-associated protein, tumor necrosis factor alpha (TNFα) was examined. In this reaction, the reducing sugar aldehyde covalently reacts with protein lysine sidechains. Chemical modification was detected using an ECL-based immunoassay that measures the binding of TNFα to its receptor. The assay is a sandwich format that uses antibodies directed against TNF and its receptor. One antibody is labeled with biotin, the other with an ECL label (TAG NHS Ester, IGEN International). When the TNF-TNF receptor complex is present, a sandwich complex comprising both a biotin and an ECL label is formed. This sandwich complex is captured on streptavidin-coated magnetic beads and measured using ECL detection. Alternatively, the TNF receptor may be directly biotinylated and the TNF target molecule labeled directly with the ECL label (or visa versa); in this alternative approach, no antibodies are necessary. […] Thus, chemical modification may be used to inactivate proteins. The uncatalyzed reaction between a β-lactam (ampicillin) and two proteins was also examined. Bovine serum albumin (BSA) and ampicillin were reacted overnight. […] Ampicillin was also reacted with TNFα overnight. […] Thus, this reaction is much more facile than the reaction of TNFα with reducing sugars.

[2] = Pseudo-first order NaOH hydrolysis rates by UV spectrometry; assay type: physicochemical; settings: 1.0 mM antibiotic, 10.0 mM NaOH, 30.0° C.
Procedure: Further, before choosing either cefoxitin or cefotaxime as the labeling reactant, it was verified that their uncatalyzed reactivity rates were as facile as that of ampicillin. Model reactions were performed comparing the (NaOH) hydrolysis rates of cefoxitin, cefotaxime, and ampicillin. Hydrolysis and acylation are mechanistically identical. Their pseudo-first order hydrolysis rates as measured by UV spectrometry (1.0 mM antibiotic, 10.0 mM NaOH, 30.0° C.) were virtually the same: […]

[3] = first column, head printed 10 g/mL
[4] = second column, head printed 10 g/mL

SMILES: CC1(C)S[C@@H]2[C@H](NC(=O)[C@H](N)c3ccccc3)C(=O)N2[C@H]1C(=O)O [Ampicillin]
- Antibiotic effect on β-lactamase-producing E. coli (in words) [1]: little or no antibiotic effect
- E. coli growth score on agar plate [1, 3]: +++++
- E. coli growth score on agar plate [1, 4]: +++++
- Loss of TNFα biological activity according to the receptor binding assay (TNFα; reacted with TNFα overnight, uncatalyzed): 16%
- Pseudo-first order hydrolysis rate [2]: 0.00564 min⁻¹

SMILES: N[C@@H](C(=O)N[C@@H]1C(=O)N2C(C(=O)O)=C(Cl)CS[C@H]12)c1ccccc1 [Cefaclor]
- Antibiotic effect on β-lactamase-producing E. coli (in words) [1]: little or no antibiotic effect
- E. coli growth score on agar plate [1, 3]: +++++

SMILES: CO/N=C(\C(=O)N[C@@H]1C(=O)N2C(C(=O)O)=C(COC(C)=O)CS[C@H]12)c1csc(N)n1 [Cefotaxime]
- Concentration toxic to β-lactamase-expressing E. coli [1]: ~0.25 µM
- Concentration toxic to β-lactamase-expressing E. coli (toxic level) [1]: ~0.12 µg/mL
- Antibiotic effect on β-lactamase-producing E. coli (in words) [1]: excellent antibiotic effects
- # of E. coli colonies ([1]; cefotaxime concentration 0.04 μg/mL): 225
- # of E. coli colonies ([1]; cefotaxime concentration 0.12 μg/mL): 5
- # of E. coli colonies ([1]; cefotaxime concentration 0.37 μg/mL): 0
- # of E. coli colonies ([1]; cefotaxime concentration 1.11 μg/mL): 0
- Pseudo-first order hydrolysis rate [2]: 0.0041 min⁻¹

SMILES: CO[C@@]1(NC(=O)Cc2cccs2)C(=O)N2C(C(=O)O)=C(COC(N)=O)CS[C@@H]21 [Cefoxitin]
- Concentration toxic to β-lactamase-expressing E. coli [1]: ~22 µM
- Concentration toxic to β-lactamase-expressing E. coli (toxic level) [1]: approximately 10 μg/mL
- Antibiotic effect on β-lactamase-producing E. coli (in words) [1]: excellent antibiotic effects
- Number of E. coli colonies on agar plate [1, 3]: 30 colonies
- Pseudo-first order hydrolysis rate [2]: 0.00438 min⁻¹

SMILES: CC(=O)OCC1=C(C(=O)O)N2C(=O)[C@@H](NC(=O)Cc3cccs3)[C@H]2SC1 [Cephalothin]
- Antibiotic effect on β-lactamase-producing E. coli (in words) [1]: little or no antibiotic effect
- E. coli growth score on agar plate [1, 3]: +++++
- E. coli growth score on agar plate [1, 4]: +++++

- TNFα receptor binding following incubation with sugar (control buffer = 1.00, arbitrary) (TNFα; incubation time: 7 days): 0.79
- TNFα receptor binding following incubation with sugar (control buffer = 1.00, arbitrary) (TNFα; incubation time: 14 days): 0.67
- TNFα receptor binding following incubation with sugar (control buffer = 1.00, arbitrary) (TNFα; incubation time: None): 1.02
SMILES: O=C(CO)[C@@H](O)[C@H](O)[C@H](O)CO [Fructose]

- TNFα receptor binding following incubation with sugar (control buffer = 1.00, arbitrary) (TNFα; incubation time: 7 days): 0.89
- TNFα receptor binding following incubation with sugar (control buffer = 1.00, arbitrary) (TNFα; incubation time: 14 days): 0.82
- TNFα receptor binding following incubation with sugar (control buffer = 1.00, arbitrary) (TNFα; incubation time: None): 1.00
SMILES: O=C[C@H](O)[C@@H](O)[C@@H](O)[C@H](O)CO [Galactose]

- Inactivation of TNFα receptor binding (in words) (TNFα; 2-week incubation period): did not inactivate TNFα
SMILES: OC[C@H]1O[C@@](CO)(O[C@H]2O[C@H](CO)[C@@H](O)[C@H](O)[C@H]2O)[C@@H](O)[C@@H]1O [sucrose]
